# According to patent publication US10258614B2, “Compositions and methods for treating schizophrenia” (priority 2014, dated 2019):
# Values joined by “and” are separate entries in the source; they are usually repeats but may differ in a detail not shown here. Identical values can stand only once. Counter-ions that a name gives are not always drawn. Like-named read-outs stand apart in the source and are kept apart here.
# What was measured:
# [1] = Part 1 single dose MR formulation pharmacokinetic study in healthy CYP2D6 EM male subjects; type: in vivo, human; parameters: Cmax increase, food effect: unit not given beside the values; settings: for AUC(0-t) / Cmax / half-life: plasma
# From the text: Part 1 of this study was designed to characterize and compare the pharmacokinetic (PK) profile of Compound (I) when administered as MR formulations, and food effects, following a single dose administration in a 6-way, within subject, crossover design.
# Part 1 of the study is an open-label, non-randomized, single dose, 6-period crossover design in 12 healthy CYP 2D6 EM male subjects. For Part 1, subjects will receive the following regimens in a non-randomised manner:
# Regimen A: MR Formulation prototype 1: 32 mg Compound (I) slow release administered in the fasted state
# A Two-Part Study Designed to Evaluate the Pharmacokinetic Profile of Compound (I) and its Main Metabolites Following Single and Multiple Dose Modified Release Prototype Formulation Administration in Healthy CYP2D6 Extensive Metabolizer Male and Female Subjects, and to Evaluate the Relationship Between the Pharmacokinetic Profile of Compound (I) and its Main Metabolites and Cardiovascular Parameters.
# [2] = system: guinea pig papillary muscle
# From the text: (§1) The effects of Compound (I) on the cardiovascular system were examined in in vitro and in vivo studies.
# [3] = system: human liver microsomes, cytochromes P450
# 5-HT2A receptors [4] = target: 5-HT2A receptors (Homo sapiens, UniProt P28223); assay: In vitro receptor binding studies
# Chain of 5-HT2A receptors (Homo sapiens, UniProt P28223) (P28223 whole entry): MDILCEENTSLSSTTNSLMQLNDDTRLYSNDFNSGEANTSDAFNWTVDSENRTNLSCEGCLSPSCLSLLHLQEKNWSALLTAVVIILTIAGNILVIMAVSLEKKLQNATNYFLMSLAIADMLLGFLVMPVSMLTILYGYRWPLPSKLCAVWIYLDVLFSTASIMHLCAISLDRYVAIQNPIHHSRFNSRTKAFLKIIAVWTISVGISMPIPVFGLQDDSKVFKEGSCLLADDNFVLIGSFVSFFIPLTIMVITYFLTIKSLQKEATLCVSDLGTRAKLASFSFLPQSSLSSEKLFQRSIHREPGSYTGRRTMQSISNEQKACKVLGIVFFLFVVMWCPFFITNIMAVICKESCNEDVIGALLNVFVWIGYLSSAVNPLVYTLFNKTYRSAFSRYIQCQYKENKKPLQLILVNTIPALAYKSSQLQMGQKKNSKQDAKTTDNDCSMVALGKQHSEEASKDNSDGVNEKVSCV
# in vivo [5] = assay: in vivo; parameters: species or system monkeys; settings: monkey
# Procedure: (§2) Pharmacokinetic (PK) studies of Compound (I) have been performed particularly in rats and monkeys. Following a single oral administration, Compound (I) was rapidly absorbed. Plasma radioactivity peaked between 0.63 and 2.75 hours in male rats, and between 3 and 3.5 hours in male monkeys. […] The elimination half-lives of radioactivity from plasma were 45.13 to 51.52 hours in rats and 174.74 to 184.78 hours in monkeys. The elimination half-lives of unchanged Compound (I) were 1.68 to 2.06 hours in rats, and 1.68 to 2.57 hours in monkeys.
# (§3) After single administration of BFB-520 in monkeys, exposure levels of BFB-520, Compound (I) and BFB-999 increased with a dose increment larger than the proportionate one. […] Finally, the brain transfer of Compound (I) was studied with male rats after oral administration (10 mg/kg). […] The Kp value (brain/plasma concentration ratio) was 1.38 mL/g.
# (§4) The major route of elimination of radioactivity in rats and monkeys following a single oral or intravenous administration was via the feces. The excretion to bile was 44.2% within 48 hours after a single oral administration to bile duct cannulated rats. Urinary excretion rates of radioactivity were about 35% in rats and monkeys. […] The enterohepatic circulation rate was determined to be about 27% after intraduodenal administration of bile samples from ^14C-Compound (I)-treated rats.
# QT/QTc interval = assay: Analysis of relationship between QT/QTc and plasma concentrations; type: in vivo, human
# Procedure: Increases in QTc interval were observed and seemed to be related to the exposure to Compound (I) and its metabolite BFB-520. […] A further analysis of the relationship between QT/QTc and Compound (I) and BFB-520 concentrations was performed.
# sigma2 receptors [6] = target: sigma2 receptors (Homo sapiens, UniProt Q5BJF2); assay: In vitro receptor binding studies
# Chain of sigma2 receptors (Homo sapiens, UniProt Q5BJF2) (Q5BJF2 whole entry): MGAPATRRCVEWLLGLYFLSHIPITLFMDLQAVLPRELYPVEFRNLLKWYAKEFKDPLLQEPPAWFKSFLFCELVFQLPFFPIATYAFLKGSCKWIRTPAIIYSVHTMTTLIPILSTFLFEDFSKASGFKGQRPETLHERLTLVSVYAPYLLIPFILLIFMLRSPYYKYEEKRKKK
# IKr current = IKr current (Homo sapiens, UniProt Q12809); assay: In vitro electrophysiology, cultured cells expressing cloned cardiac ion channels
# Chain of IKr current (Q12809 whole entry): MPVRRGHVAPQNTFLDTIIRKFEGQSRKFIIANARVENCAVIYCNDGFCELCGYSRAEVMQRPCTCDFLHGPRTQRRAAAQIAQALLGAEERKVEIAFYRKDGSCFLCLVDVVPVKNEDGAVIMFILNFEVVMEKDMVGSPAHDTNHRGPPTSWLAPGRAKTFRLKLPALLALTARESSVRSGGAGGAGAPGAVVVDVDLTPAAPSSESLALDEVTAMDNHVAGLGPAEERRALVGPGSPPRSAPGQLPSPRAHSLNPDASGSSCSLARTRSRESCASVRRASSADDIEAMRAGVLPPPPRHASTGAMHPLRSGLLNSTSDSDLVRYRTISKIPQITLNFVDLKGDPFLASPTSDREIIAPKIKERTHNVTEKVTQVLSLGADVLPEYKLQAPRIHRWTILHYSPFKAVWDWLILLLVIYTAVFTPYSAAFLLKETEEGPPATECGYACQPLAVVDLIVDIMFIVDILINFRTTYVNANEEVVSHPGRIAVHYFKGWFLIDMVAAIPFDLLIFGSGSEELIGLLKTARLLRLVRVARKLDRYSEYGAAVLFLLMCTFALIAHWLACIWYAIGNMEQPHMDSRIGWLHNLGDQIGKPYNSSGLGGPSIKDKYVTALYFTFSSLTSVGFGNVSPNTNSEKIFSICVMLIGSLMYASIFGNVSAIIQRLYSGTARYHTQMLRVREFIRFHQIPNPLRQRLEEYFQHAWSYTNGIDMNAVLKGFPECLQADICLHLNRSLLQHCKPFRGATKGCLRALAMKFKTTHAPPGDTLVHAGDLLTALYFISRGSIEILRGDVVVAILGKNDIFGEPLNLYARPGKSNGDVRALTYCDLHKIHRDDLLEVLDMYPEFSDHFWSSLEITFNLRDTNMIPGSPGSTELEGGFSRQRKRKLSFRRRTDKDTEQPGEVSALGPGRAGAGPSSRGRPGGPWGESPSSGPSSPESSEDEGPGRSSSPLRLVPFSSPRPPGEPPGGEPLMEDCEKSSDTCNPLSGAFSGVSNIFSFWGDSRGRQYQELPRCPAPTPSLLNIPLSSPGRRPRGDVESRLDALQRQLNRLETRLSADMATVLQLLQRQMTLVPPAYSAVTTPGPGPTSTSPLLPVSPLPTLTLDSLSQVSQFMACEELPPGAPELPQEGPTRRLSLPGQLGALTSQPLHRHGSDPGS
# From the text: as §1
# [7] = system: methamphetamine-induced hyperlocomotion; assay: Methamphetamine-induced hyperlocomotion; type: in vivo, male Wistar rats; settings: for methamphetamine-induced hyperlocomotion: male Wistar rats
# Procedure: (§5) Compound (I) was tested in male Wistar rats in several behavioral paradigms designed to evaluate the potential for producing antipsychotic activity of drugs in humans. Compound (I) inhibited methamphetamine-, apomorphine-, and phencyclidine-induced hyperlocomotion in a similar manner to other antipsychotics.
# al-adrenergic receptors = assay: In vitro receptor binding studies
# rats = assay: Safety pharmacology studies (general activity and behavior, CNS, respiratory, gastrointestinal, water and electrolyte excretion); type: in vivo
# Procedure: In a series of safety pharmacology studies, the effects of Compound (I) on general activity and behavior, the CNS, respiratory function, gastrointestinal system, and water and electrolyte excretion were examined in rats at an oral dose range of 1 to 30 mg/kg Compound (I) induced various changes in general activity and behavior. These clinical signs were observed between 0.25 to 4 hours post-dosing and disappeared by 6 hours post-dosing. Compound (I) inhibited CNS function and decreased thresholds for electroshock-induced convulsion.
# sleep architecture = assay: CYR-101C01 Phase 2a study, sleep recordings (PSG) and PSQI; type: in vivo, human
# [8] = system: dopamine turnover, DA metabolites DOPAC and HVA; assay: Dopamine turnover and DA metabolite output after oral administration; type: in vivo
# From the text: (§6) In in vivo functional tests, Compound (I) acted as an antagonist at sigma2 and 5-HT2A receptors.
# DA receptors = assay: In vitro receptor binding studies; settings: read-out: IC50 (affinity for DA receptors)
# in vivo [9] = assay: in vivo; parameters: species or system rats; settings: rat
# Procedure: as §2
# Food and gender effects were also assessed in rats.
# as §4
# [10] = system: spontaneous alternation behavior impairment induced by MK-801; assay: Impairment of spontaneous alternation behavior induced by MK-801; parameters: species or system male Wistar rats; settings: rat, in vivo
# [11] = system: phencyclidine-induced hyperlocomotion; assay: Phencyclidine-induced hyperlocomotion; type: in vivo; settings: male Wistar rats
# Procedure: as §5
# [12] = system: PCP-induced social interaction impairment; assay: PCP-induced social interaction impairment; type: in vivo, male Wistar rats; settings: after repeated administration
# CYP2D6 = CYP2D6 (Homo sapiens, UniProt P10635); assay: Inhibition of human P450 isoforms; type: in vitro ADME
# Chain of CYP2D6 (P10635 whole entry, canonical isoform): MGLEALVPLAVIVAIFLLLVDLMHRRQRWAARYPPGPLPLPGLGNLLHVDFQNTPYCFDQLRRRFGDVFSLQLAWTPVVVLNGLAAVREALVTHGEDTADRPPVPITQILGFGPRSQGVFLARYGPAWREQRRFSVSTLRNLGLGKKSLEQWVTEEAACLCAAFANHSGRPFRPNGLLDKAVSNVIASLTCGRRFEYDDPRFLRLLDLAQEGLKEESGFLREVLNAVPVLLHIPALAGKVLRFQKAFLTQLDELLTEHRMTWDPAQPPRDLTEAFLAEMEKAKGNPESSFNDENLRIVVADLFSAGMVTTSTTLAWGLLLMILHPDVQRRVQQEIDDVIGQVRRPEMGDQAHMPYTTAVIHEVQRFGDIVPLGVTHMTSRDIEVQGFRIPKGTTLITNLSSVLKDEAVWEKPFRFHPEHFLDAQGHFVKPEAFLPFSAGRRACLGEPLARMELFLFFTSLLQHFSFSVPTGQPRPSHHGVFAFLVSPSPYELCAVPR
# 5-HT2A receptors [13] = assay: In vivo functional tests
# From the text: as §6
# sigma2 receptors [14] = assay: In vivo functional tests
# From the text: as §6
# in vivo [15] = assay: in vivo; parameters: species or system male rats; settings: rat, po, 10 mg/kg
# Procedure: as §3
# [16] = system: apomorphine-induced hyperlocomotion; assay: Apomorphine-induced hyperlocomotion; type: in vivo; settings: male Wistar rats
# Procedure: as §5
# [17] = system: human P450 isoforms (CYP1A2, 2A6, 2B6, 2C8/9, 2C19, 2E1 and 3A4); assay: Inhibition of human P450 isoforms; type: in vitro ADME
compound,measurement,setting,value
O=C1c2ccccc2CN1CC1CCN(CC(O)c2ccc(F)cc2)CC1 (stereo not drawn) [BFB-520],Half-life Fed to Fasted ratio,"[1]; human, in vivo",0.8
same,dose proportionality of PK,"[1]; human, in vivo",less so
same,concentration that prolonged the action potential duration (APD),[2],≥ 100 nM
same,metabolizing enzymes,[3],metabolized by CYP2D6 and CYP3A4
same,affinity for 5-HT2A receptors compared with Compound (I),5-HT2A receptors [4],lower
same,time to maximum concentration post-dosing,in vivo [5],≤ 4 h
same,Cmax that should not be exceeded to avoid QT prolongation,"QT/QTc interval; human, in vivo",≤ 12 ng/mL
same,affinity for σ2 receptors compared with Compound (I),sigma2 receptors [6],lower affinity
same,IC50,IKr current,181 nM
same,methamphetamine-induced hyperlocomotion,[7],inhibited
same,ED50 compared with Compound (I),[7]; methamphetamine-induced hyperlocomotion,higher than that of Compound (I)
"O=C(CN1CCC(CN2Cc3ccccc3C2=O)CC1)c1ccc(F)cc1 [Compound (I), 2-((1-(2-(4-Fluorophenyl)-2-oxoethyl)piperidin-4-yl)methyl)isoindolin-1-one monohydrochloride dihydrate]",Ki,al-adrenergic receptors,14.4 nM
same,dose proportionality of PK,[1]; MR formulation under fasted conditions,generally dose proportional
same,"Cmax increase, food effect","[1]; MR formulation, fed vs fasted",~2 ×
same,Half-life Fed to Fasted ratio,"[1]; MR formulation, fed vs fasted",0.5
same,"Tiag, Median","[1]; Period 1, 32 mg Slow Release, Fasted, plasma analyte",0 h
same,Tmax,"[1]; male, human, oral, Period 1, 32 mg Slow Release, Fasted, plasma analyte, read-out: Tmax, Median",2.25 h
same,AUC(0-t),"[1]; male, human, oral, 32 mg, Period 1, 32 mg Slow Release, Fasted, plasma analyte, read-out: AUClast, Mean",212 ng·h/mL
same,AUC(0-t),"[1]; male, human, oral, 32 mg, Period 1, 32 mg Slow Release, Fasted, plasma analyte, read-out: AUClast, Median",220 ng·h/mL
same,Cmax,"[1]; male, human, oral, 32 mg, Period 1, 32 mg Slow Release, Fasted, plasma analyte, read-out: Cmax, Mean",22.5 ng/mL
same,Cmax,"[1]; male, human, oral, 32 mg, Period 1, 32 mg Slow Release, Fasted, plasma analyte, read-out: Cmax, Median",23.7 ng/mL
same,half-life,"[1]; male, human, oral, 32 mg, Period 1, 32 mg Slow Release, Fasted, plasma analyte, read-out: t½, Mean (converted)",6.26 h
same,half-life,"[1]; male, human, oral, 32 mg, Period 1, 32 mg Slow Release, Fasted, plasma analyte, read-out: t½, Median (converted)",5.35 h
same,half-life,"[1]; male, human, oral, MR formulation under fasted conditions, read-out: Half-life",3 to 8 h
same,CNS function,rats; oral 1 to 30 mg/kg,inhibited
same,thresholds for electroshock-induced convulsion,rats; oral 1 to 30 mg/kg,decreased
same,time by which clinical signs disappeared post-dosing,rats; oral 1 to 30 mg/kg,≤ 6 h
same,effects at high doses,"rats; oral, high doses (>10 mg/kg)","affected respiratory function, inhibited gastric emptying, damaged the gastrointestinal membrane, decreased urine volume, and increased urine potassium excretion"
same,"sleep initiation parameters (sleep onset latency, latency to persistent sleep)",sleep architecture; patients,improved
same,slow wave sleep (SWS) in the first third of the night,"sleep architecture; patients, PSG",significantly increased
same,slow wave sleep (SWS) in the last third of the night,"sleep architecture; patients, PSG",decreased
same,subjective sleep quality as measured by PSQI,sleep architecture; vs placebo,improvement was greater with Compound (I) than with placebo although not statistically significant
same,metabolizing enzymes,[3],mainly metabolized by enzymatic reaction other than CYP isoforms
same,monoamine levels,[8]; effective dose levels in animal models of antipsychotic activity,did not affect
same,dopamine turnover in the accumbens and striatum,[8]; oral administration,slightly increased
same,output of DA metabolites such as DOPAC and HVA in prefrontal cortex,"[8]; oral, high dose levels",increased the output
same,IC50,DA receptors,> 1000 nM
same,recovery of given radioactivity in carcass,"in vivo [9]; male, 168 h",0.7%
same,time of peak plasma radioactivity,"in vivo [9]; male, po",0.63 to 2.75 h
same,enterohepatic circulation rate,in vivo [9],about 27%
same,"pharmacokinetic parameters for total radioactivity, female vs male rats",in vivo [9],comparable
same,urinary excretion rate of radioactivity,in vivo [9],about 35%
same,bioavailability,in vivo [9]; po,52.4 to 64.5%
same,half-life,in vivo [9]; po,1.68 to 2.06 h
same,oral absorption rate,in vivo [9]; po,90.3-94.7%
same,transfer into milk,in vivo [9]; po,rapidly transferred into milk and were slowly eliminated
same,impairment of spontaneous alternation behavior induced by MK-801,[10],improved
same,phencyclidine-induced hyperlocomotion,[11],inhibited
same,PCP-induced social interaction impairment,[12],significantly ameliorated
same,Ki,5-HT2A receptors [4]; 5-HT2A receptor,7.53 nM
same,time of peak plasma radioactivity,"in vivo [5]; male, po",3 to 3.5 h
same,urinary excretion rate of radioactivity,in vivo [5],about 35%
same,bioavailability,in vivo [5]; po,≥ 90%
same,half-life,in vivo [5]; po,1.68 to 2.57 h
same,oral absorption rate,in vivo [5]; po,70.0-99.9%
same,inhibitory effect on CYP2D6,CYP2D6,weak inhibitory effect
same,Cmax,"QT/QTc interval; human plasma, read-out: Cmax that should not be exceeded to avoid QT prolongation",≤ 80 ng/mL
same,Ki,sigma2 receptors [6]; sigma2 receptor,8.19 nM
same,functional activity at 5-HT2A receptors,5-HT2A receptors [13],antagonist
same,functional activity at sigma2 receptors,sigma2 receptors [14],antagonist
same,Cmax,in vivo [15]; male,3160 ng/mL and 4950 ng/g
same,Kp value (brain/plasma concentration ratio),in vivo [15],1.38 mL/g
same,IC50,IKr current,325 nM
same,methamphetamine-induced hyperlocomotion,[7],inhibited
same,apomorphine-induced hyperlocomotion,[16],inhibited
same,"inhibitory effects on human P450 isoforms (CYP1A2, 2A6, 2B6, 2C8/9, 2C19, 2E1 and 3A4)",[17],No remarkable inhibitory effects
